For data set [1], the system named is CYP3A. The note with it: clinical DDI studies; ref [9]; cited from earlier work.
The test system of data set [2] is CYP3A. As to conditions: ref [9]; cited from earlier work.
For data set [3], the system named is CYP1A1. The arrangement: method as in PMID 25429674. As to conditions: ref [9]; cited from earlier work.
For data set [4], the system named is CYP3A4/5. Nature of the data set: in vitro CYP450 metabolism inhibition assay in human liver microsomes, CYP3A (midazolam or nifedipine). The note with it: human, microsomes, pH 7.4. As for the experimental part:
(§1) The incubation conditions employed for each CYP450 isoform were performed, as previously described.
(§2) Buffer solution (0.1 mol/L aqueous phosphate buffer, pH 7.4, 69 µL), NADPH-regenerating solutions (10 µL solution A: 26 mmol/L NADP+, 66 mmol/L glucose-6-phosphate, and 66 mmol/L MgCl2; 2 µL solution B: 40 U/mL glucose-6-phosphate dehydrogenase in 5 mmol/L sodium citrate), and deionized water (69 µL) were added, in a total volume of 150 μL. The tubes were vortex-mixed and preincubated with continuous gentle shaking for 5 min at 37 °C in a shaking water bath. Reactions were initiated by the addition of 50 µL of HLM solution in the tubes which were gently mixed by hand and incubated with continuous gentle shaking at 37 °C. Aliquots of 200 µL ice-cold solvent (Table 1) containing IS (1 µg/mL) were added. […] The supernatants were transferred to glass autosampler vials and submitted to LC-MS/MS analysis (5 µL injection volume) to monitor the substrate metabolite formation.
(Microsomes from liver hold many membrane-bound enzymes, among them those of drug oxidation.)

Data set [5] concerns the target T1, CYP1A2 (Homo sapiens, UniProt P05177).
T1 sequence (P05177 1-516): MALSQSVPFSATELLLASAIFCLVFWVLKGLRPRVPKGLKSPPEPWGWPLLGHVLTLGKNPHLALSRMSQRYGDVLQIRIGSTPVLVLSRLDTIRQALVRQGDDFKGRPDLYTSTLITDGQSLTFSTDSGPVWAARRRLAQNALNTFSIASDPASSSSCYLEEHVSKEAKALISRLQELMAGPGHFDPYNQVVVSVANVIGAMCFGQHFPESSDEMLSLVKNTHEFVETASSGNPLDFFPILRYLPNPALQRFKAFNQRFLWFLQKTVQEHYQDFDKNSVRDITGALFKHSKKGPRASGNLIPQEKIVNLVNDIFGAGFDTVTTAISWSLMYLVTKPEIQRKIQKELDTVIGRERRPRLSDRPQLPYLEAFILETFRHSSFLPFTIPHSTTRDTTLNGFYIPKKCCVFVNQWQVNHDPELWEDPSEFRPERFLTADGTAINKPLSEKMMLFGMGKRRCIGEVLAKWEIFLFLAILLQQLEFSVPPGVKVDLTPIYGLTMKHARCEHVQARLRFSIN
Also noted: method as in PMID 25429674. As to conditions: ref [9]; cited from earlier work.

For data set [6], the target named is T2, CYP2A6 (Homo sapiens, UniProt P11509).
T2 sequence (P11509 1-494): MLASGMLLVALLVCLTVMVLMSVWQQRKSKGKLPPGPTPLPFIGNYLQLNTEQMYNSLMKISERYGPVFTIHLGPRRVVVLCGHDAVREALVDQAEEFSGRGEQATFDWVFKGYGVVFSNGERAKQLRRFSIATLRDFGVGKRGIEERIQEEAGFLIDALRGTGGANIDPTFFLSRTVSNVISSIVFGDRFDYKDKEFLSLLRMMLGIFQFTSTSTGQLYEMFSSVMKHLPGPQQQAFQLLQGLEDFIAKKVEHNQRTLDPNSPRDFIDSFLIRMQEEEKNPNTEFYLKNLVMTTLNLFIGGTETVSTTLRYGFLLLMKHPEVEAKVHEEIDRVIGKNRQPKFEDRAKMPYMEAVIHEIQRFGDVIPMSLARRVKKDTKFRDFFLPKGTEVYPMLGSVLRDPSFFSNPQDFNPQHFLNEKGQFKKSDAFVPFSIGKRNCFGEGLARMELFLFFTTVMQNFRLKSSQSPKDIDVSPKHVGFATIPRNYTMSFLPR
Also noted: method as in PMID 25429674. As to conditions: ref [9]; cited from earlier work.

For data set [7], the system named is CYP2B6. The arrangement: method as in PMID 25429674. The note with it: ref [9]; cited from earlier work.
In data set [8] the target is T1, CYP1A2. As to conditions: cited from earlier work.
Data set [9] concerns the target CYP2C19 (Homo sapiens, UniProt P33261). The arrangement: method as in PMID 25429674. As to conditions: ref [9]; cited from earlier work.
The target of data set [10] is CYP2D6 (Homo sapiens, UniProt P10635). The arrangement: method as in PMID 25429674. The note with it: ref [9]; cited from earlier work.
Chain of CYP2D6 (P10635 whole entry): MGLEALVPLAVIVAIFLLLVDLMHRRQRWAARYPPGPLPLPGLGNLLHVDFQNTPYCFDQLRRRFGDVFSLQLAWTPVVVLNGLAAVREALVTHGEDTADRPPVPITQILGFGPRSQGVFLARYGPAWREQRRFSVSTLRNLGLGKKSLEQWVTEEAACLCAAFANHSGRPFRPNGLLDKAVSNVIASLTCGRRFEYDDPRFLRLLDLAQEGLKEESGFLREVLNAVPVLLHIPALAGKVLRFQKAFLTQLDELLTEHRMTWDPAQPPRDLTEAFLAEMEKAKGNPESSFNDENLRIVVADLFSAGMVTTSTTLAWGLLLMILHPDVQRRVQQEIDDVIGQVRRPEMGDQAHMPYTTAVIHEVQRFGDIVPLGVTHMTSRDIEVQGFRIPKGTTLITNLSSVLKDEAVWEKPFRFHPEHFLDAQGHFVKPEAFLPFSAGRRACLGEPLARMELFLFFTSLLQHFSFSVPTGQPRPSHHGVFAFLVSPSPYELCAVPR
Data set [11] concerns the target T2, CYP2A6. As to the kind of experiment: in vitro CYP450 metabolism inhibition assay in human liver microsomes, CYP2A6 (coumarin). The note with it: HLM, substrate coumarin; figure in parentheses not defined. As for the experimental part:
as §1, §2

Data set [12] has as its system CYP3A4. As to conditions: cited from earlier work.
Data set [13] deals with T3, CYP2C8 (Homo sapiens, UniProt P10632).
T3 sequence (P10632 1-490): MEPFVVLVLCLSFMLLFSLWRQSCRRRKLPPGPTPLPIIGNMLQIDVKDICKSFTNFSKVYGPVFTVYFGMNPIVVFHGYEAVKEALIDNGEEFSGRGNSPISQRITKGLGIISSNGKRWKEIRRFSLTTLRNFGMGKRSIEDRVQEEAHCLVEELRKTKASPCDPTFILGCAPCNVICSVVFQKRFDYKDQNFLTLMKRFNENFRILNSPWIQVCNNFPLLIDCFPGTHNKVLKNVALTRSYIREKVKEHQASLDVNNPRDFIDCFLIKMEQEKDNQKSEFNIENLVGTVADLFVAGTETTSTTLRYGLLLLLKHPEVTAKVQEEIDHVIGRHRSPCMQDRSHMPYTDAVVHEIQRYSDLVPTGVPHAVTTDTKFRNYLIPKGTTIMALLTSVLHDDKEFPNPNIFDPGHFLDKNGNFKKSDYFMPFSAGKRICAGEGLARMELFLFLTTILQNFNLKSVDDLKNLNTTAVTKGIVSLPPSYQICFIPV
The arrangement: method as in Hua et al. [19]. The note with it: by CYP2C8; ref Hua et al. [19]; cited from earlier work.

For orientation: IC50 means the point on the concentration scale where inhibition reaches its midpoint.

Chain of CYP2C19 (P33261 whole entry): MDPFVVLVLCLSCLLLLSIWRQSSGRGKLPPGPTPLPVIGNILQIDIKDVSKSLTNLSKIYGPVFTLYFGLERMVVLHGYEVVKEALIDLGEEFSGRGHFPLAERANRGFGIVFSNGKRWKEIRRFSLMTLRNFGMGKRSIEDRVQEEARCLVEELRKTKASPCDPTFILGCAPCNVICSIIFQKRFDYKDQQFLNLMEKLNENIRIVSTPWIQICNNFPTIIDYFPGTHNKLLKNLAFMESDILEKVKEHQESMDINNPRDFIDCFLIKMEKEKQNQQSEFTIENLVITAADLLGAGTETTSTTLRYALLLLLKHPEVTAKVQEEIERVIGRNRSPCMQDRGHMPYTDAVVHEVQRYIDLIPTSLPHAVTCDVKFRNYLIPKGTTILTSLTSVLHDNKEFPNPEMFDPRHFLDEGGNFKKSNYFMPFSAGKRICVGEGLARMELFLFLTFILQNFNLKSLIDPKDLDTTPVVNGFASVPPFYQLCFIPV

Regarding `OC(Cn1cncn1)(Cn1cncn1)c1ccc(F)cc1F` [fluconazole], in data set [1], the “clinical CYP3A inhibitor strength” value is given as “moderate to strong CYP3A inhibitors”. In addition, the “in vitro inhibition of CYP3A” value in data set [2] was “moderately inhibits”.

`CC(=O)N1CCN(c2ccc(OCC3COC(Cn4ccnc4)(c4ccc(Cl)cc4Cl)O3)cc2)CC1` (stereo not shown) [Ketoconazole]: the “in vitro inhibition of CYP1A1” value in [3] is on record as “strongly inhibits”. In addition, in data set [4], the half-maximal inhibitory concentration (IC50) is under 10 nM. In data set [1], the “clinical CYP3A inhibitor strength” value was “moderate to strong CYP3A inhibitors”. The “in vitro inhibition of CYP1A2” value in data set [5] is on record as “moderately inhibits”. Further, the “in vitro inhibition of CYP2A6” value in [6] is “moderately inhibits”. Further, the “in vitro inhibition of CYP3A” value in [2] is “strongly inhibits”.

Turning to `CCC(C)n1ncn(-c2ccc(N3CCN(c4ccc(OCC5COC(Cn6cncn6)(c6ccc(Cl)cc6Cl)O5)cc4)CC3)cc2)c1=O` (stereo not shown) [itraconazole], in data set [1], the “clinical CYP3A inhibitor strength” value is reported as “moderate to strong CYP3A inhibitors”. Moreover, in data set [2], the “in vitro inhibition of CYP3A” value is “strongly inhibits”. Further, in [7], the “in vitro inhibition of CYP2B6” value was “strongly inhibits”.

In the case of `CC[C@@H]([C@H](C)O)n1ncn(-c2ccc(N3CCN(c4ccc(OC[C@@H]5CO[C@@](Cn6cncn6)(c6ccc(F)cc6F)C5)cc4)CC3)cc2)c1=O` [posaconazole], the “clinical CYP3A inhibitor strength” value in [1] was “moderate to strong CYP3A inhibitors”. Also, the “in vitro inhibition of CYP3A” value in [2] was “strongly inhibits”.

With `CCOc1ccc(NC(C)=O)cc1` [Phenacetin], the “fm (fraction metabolized)” value in data set [8] is given as 0.71.

As to `Clc1ccc(COC(Cn2ccnc2)c2ccc(Cl)cc2Cl)c(Cl)c1` (stereo not shown) [miconazole], the “in vitro inhibition of CYP2C19” value in data set [9] is listed as “strongly inhibits”. The “in vitro inhibition of CYP2A6” value in data set [6] is “strongly inhibits”. For the same compound, in data set [2], the “in vitro inhibition of CYP3A” value was “strongly inhibits”. Moreover, the “in vitro inhibition of CYP2B6” value in data set [7] was “strongly inhibits”. The “in vitro inhibition of CYP2D6” value in [10] is recorded as “strongly inhibits”.

Regarding `N[C@@H]1C[C@H]1c1ccccc1` (racemic) [Tranylcypromine, reference compound], in data set [11], the IC50 is 799 nM.

Take `Cc1ncc2n1-c1ccc(Cl)cc1C(c1ccccc1F)=NC2` [Midazolam]: the “fm (fraction metabolized)” value in data set [12] is reported as 0.88.

Turning to `CC(=O)O[C@H]1C(=O)[C@@]2(C)[C@H]([C@H](OC(=O)c3ccccc3)[C@]3(O)C[C@H](OC(=O)[C@H](O)[C@@H](NC(=O)c4ccccc4)c4ccccc4)C(C)=C1C3(C)C)[C@]1(OC(C)=O)CO[C@@H]1C[C@@H]2O` [Paclitaxel], in data set [13], the “fm (fraction metabolized)” value is reported as 0.5.

The values above are taken from paper PMC9861162 (Pharmaceuticals, 2022).
